Laboratory results published in paper PMC8948292, “Combining PEGylated mito-atovaquone with MCT and Krebs cycle redox inhibitors as a potential strategy to abrogate tumor cell proliferation” (Scientific Reports, 2022).
pIC50: −log10 of the molar value.

What was measured:
[1] = target: mitochondrial complex III (MiaPaCa-2 cells) (Homo sapiens, UniProt P00156); assay: Complex III-dependent oxygen consumption in permeabilized cells, Seahorse XF-96; format: cell-based
How it was run: (§1)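 MiaPaCa-2 cells were treated 24 h with Mito-PEG-ATO analogs, and OCR was read on a Seahorse XF-96; basal respiration was taken in intact cells. For complex I, permeabilized cells received 10 mM pyruvate, 1.5 mM malate and 10 mM malonate; for complex III, 0.5 mM duroquinol, 1 µM rotenone and 10 mM malonate, both in mannitol/sucrose buffer. IC50 values were derived from the OCR data.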

[2] = test system: mitochondrial respiration (OCR) in intact MiaPaCa-2 cells; assay: Intact cell mitochondrial respiration (basal OCR), Seahorse XF-96; format: cell-based, human
How it was run: as §1

[3] = test system: U87MG cells; assay: Basal extracellular acidification rate (ECAR) in intact cells; format: cell-based, human
[4] = target: T1, mitochondrial complex III (U87MG cells) (Homo sapiens, UniProt P00156); assay: Complex III-dependent oxygen consumption, Seahorse XF-96; format: cell-based
T1 construct: endogenous in cells; host or cells: U87MG (ATCC HTB-14)
T1 sequence (P00156 whole entry): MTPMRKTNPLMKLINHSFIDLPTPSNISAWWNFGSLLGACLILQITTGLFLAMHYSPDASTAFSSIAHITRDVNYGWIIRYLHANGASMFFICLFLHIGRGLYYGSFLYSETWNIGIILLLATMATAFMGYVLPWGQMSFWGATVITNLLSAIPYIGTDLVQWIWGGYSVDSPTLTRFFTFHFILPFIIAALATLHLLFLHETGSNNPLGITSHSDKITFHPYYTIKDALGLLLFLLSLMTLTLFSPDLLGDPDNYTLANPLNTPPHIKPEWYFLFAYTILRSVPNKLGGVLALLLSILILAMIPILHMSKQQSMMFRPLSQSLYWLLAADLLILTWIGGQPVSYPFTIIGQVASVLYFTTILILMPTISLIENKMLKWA
T1 sequence (P47985 whole entry partner): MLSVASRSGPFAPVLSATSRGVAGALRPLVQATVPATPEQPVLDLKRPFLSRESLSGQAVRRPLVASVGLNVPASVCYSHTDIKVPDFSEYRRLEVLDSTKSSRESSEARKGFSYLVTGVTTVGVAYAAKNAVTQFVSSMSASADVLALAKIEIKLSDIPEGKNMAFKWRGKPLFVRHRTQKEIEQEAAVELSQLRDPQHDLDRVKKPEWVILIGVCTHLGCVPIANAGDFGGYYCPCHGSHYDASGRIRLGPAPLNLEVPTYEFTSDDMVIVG
Experimental: (§2) Mitochondrial oxygen consumption was measured using the Seahorse XF-96 Extracellular Flux Analyzer (Agilent, North Billerica, MA)[3],[33],[67],[68]. To determine the intact cell mitochondrial function of MiaPaCa-2 cells in response to Mito-PEG-ATO analogs, we used the bioenergetic function assay previously described[2],[3]. […] From these measurements, indices of mitochondrial function were determined as previously described[2],[3]. For mitochondrial complex activities assays, after cells were treated with Mito-PEG-ATO analogs for 24 h, the OCR-based assessment of mitochondrial complex activities was carried out on acutely permeabilized cells in the presence of different mitochondrial substrates, i.e., pyruvate/malate for complex I and duroquinol for complex III[3],[32],[34],[69]. Rotenone, malonate, and antimycin A (Sigma-Aldrich, St. Louis, MO) were used as specific inhibitors of mitochondrial complexes I, II, and III, respectively. Briefly, cells that were intact after treatments were immediately permeabilized using the Seahorse XF Plasma Membrane Permeabilizer (Agilent). The mitochondrial complex I-induced OCR was assayed in mannitol and sucrose buffer[69] containing 10 mM pyruvate and 1.5 mM malate (substrates for complex I) and 10 mM malonate (which inhibits complex II activities). […] The IC50 values were determined as previously reported. […]

[5] = test system: MiaPaCa-2 cells; assay: Basal extracellular acidification rate (ECAR) in intact cells; format: cell-based, human; conditions: 24 h treatment
Experimental: as §2

[6] = test system: MiaPaCa-2 cells; assay: Cell proliferation (cell confluence), IncuCyte Live-Cell Analysis System; format: cell-based, human; conditions: for Cell confluence (% of control): MiaPaCa-2 cells, control ~90% confluence
How it was run: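 MiaPaCa-2 cells in DMEM with 10% FBS, plated at 1,000 cells/well in triplicate and adhered overnight, then treated with Mito-PEG-ATO analogs. Confluence imaged label-free over several days, increase in percent confluence serving as proliferation surrogate.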

[7] = test system: mitochondrial complex I (U87MG cells); assay: Complex I-dependent oxygen consumption, Seahorse XF-96; format: cell-based, human
Experimental: as §2

[8] = test system: mitochondrial respiration (OCR) in intact U87MG cells; assay: Intact cell mitochondrial respiration (basal OCR), Seahorse XF-96; format: cell-based, human; conditions: 24 h treatment
Experimental: Mitochondrial oxygen consumption was measured using the Seahorse XF-96 Extracellular Flux Analyzer (Agilent, North Billerica, MA)[3],[33],[67],[68]. To determine the intact cell mitochondrial function of MiaPaCa-2 cells in response to Mito-PEG-ATO analogs, we used the bioenergetic function assay previously described[2],[3]. […] From these measurements, indices of mitochondrial function were determined as previously described[2],[3]. For mitochondrial complex activities assays, after cells were treated with Mito-PEG-ATO analogs for 24 h, the OCR-based assessment of mitochondrial complex activities was carried out on acutely permeabilized cells in the presence of different mitochondrial substrates, i.e., pyruvate/malate for complex I and duroquinol for complex III[3],[32],[34],[69]. Rotenone, malonate, and antimycin A (Sigma-Aldrich, St. Louis, MO) were used as specific inhibitors of mitochondrial complexes I, II, and III, respectively. […] The IC50 values were determined as previously reported.
Figure S8. […] (b) After eight baseline OCR measurements, the response to mitochondrial modulators (oligomycin, dinitrophenol, and rotenone/antimycin A as described in the Methods section) were recorded. The last three stable baseline OCR reading before oligomycin injection was plotted against the concentration of Mito-PEG4-ATO (red open box). […]

Sequence of mitochondrial complex III (MiaPaCa-2 cells) (P00156 whole entry): as the sequence (P00156 whole entry) above
Sequence of mitochondrial complex III (MiaPaCa-2 cells) (P47985 whole entry partner): as the sequence (P47985 whole entry partner) above

For O=C1C(OCCOCCOCCOCC[P+](c2ccccc2)(c2ccccc2)c2ccccc2)=C([C@H]2CC[C@H](c3ccc(Cl)cc3)CC2)C(=O)c2ccccc21.[Br-] [Mito-PEG4-ATO, [2-(2-(2-(2-((3-(trans-4-(4-chlorophenyl)cyclohexyl)-1,4-dioxo-1,4-dihydronaphthalen-2-yl)oxy)ethoxy)ethoxy)ethoxy)ethyl]triphenylphosphonium bromide], the “Complex III activity (OCR, % of control)” value ([1]; 0.02 µM) was 98.8 % of control, the “Complex III activity (OCR, % of control)” value ([1]; 0.05 µM) was 96.0 % of control and the “Complex III activity (OCR, % of control)” value ([1]; 0.08 µM) was 99.9 % of control. For the same compound, the “Complex III activity (OCR, % of control)” value ([1]; 0.16 µM) was 96.5 % of control, the “Complex III activity (OCR, % of control)” value ([1]; 0.32 µM) was 90.1 % of control and the “Complex III activity (OCR, % of control)” value ([1]; 0.5 µM) was 92.4 % of control. For the same compound, the “Complex III activity (OCR, % of control)” value ([1]; 0.8 µM) was 76.5 % of control, the “Complex III activity (OCR, % of control)” value ([1]; 1.6 µM) was 51.9 % of control and the “Complex III activity (OCR, % of control)” value ([1]; 5 µM) was 24.8 % of control. For the same compound, the pIC50 ([1]; MiaPaCa-2 cells, 24 h treatment, antimycin A-inhibitable OCR, read-out: IC50, complex III-induced oxygen consumption (Complex III activity)) was 5.77, the “OCR (pmol/min/µg protein)” value ([2]; 0.003 µM, 24 h treatment, intact MiaPaCa-2 cells, baseline OCR, mean, n=4) was 20.44 pmol/min/µg protein and the “OCR (basal, intact cell mitochondrial respiration)” value ([2]; 0.01 µM, 24 h treatment, intact MiaPaCa-2 cells, mean, n=4) was 17.79 pmol/min/µg protein. The “OCR (basal, intact cell mitochondrial respiration)” value ([2]; 0.03 µM, 24 h treatment, intact MiaPaCa-2 cells, mean, n=4) was 17.72 pmol/min/µg protein, the “OCR (basal, intact cell mitochondrial respiration)” value ([2]; 0.05 µM, 24 h treatment, intact MiaPaCa-2 cells, mean, n=4) was 16.82 pmol/min/µg protein and the “OCR (basal, intact cell mitochondrial respiration)” value ([2]; 0.1 µM, 24 h treatment, intact MiaPaCa-2 cells, mean, n=4) was 13.38 pmol/min/µg protein. The “OCR (basal, intact cell mitochondrial respiration)” value ([2]; 0.2 µM, 24 h treatment, intact MiaPaCa-2 cells, mean, n=4) was 9.15 pmol/min/µg protein, the “OCR (basal, intact cell mitochondrial respiration)” value ([2]; 0.3 µM, 24 h treatment, intact MiaPaCa-2 cells, mean, n=4) was 6.10 pmol/min/µg protein and the “OCR (basal, intact cell mitochondrial respiration)” value ([2]; 0.5 µM, 24 h treatment, intact MiaPaCa-2 cells, mean, n=4) was 3.29 pmol/min/µg protein. For the same compound, the “OCR (basal, intact cell mitochondrial respiration)” value ([2]; 1 µM, 24 h treatment, intact MiaPaCa-2 cells, mean, n=4) was 1.41 pmol/min/µg protein, the “OCR (basal, intact cell mitochondrial respiration)” value ([2]; 3 µM, 24 h treatment, intact MiaPaCa-2 cells, mean, n=4) was 0.43 pmol/min/µg protein and the “OCR (basal, intact cell mitochondrial respiration)” value ([2]; 10 µM, 24 h treatment, intact MiaPaCa-2 cells, mean, n=4) was 0.42 pmol/min/µg protein. The pIC50 ([2]; Homo sapiens, MIA PaCa-2, 24 h, read-out: IC50, inhibition of basal OCR in intact cells) was 6.59, the ECAR [3] was “stimulated ECAR” and the “Complex III-induced oxygen consumption” value [4] was “inhibited”. The ECAR [5] was “stimulated ECAR”, the pIC50 ([6]; Homo sapiens, MIA PaCa-2, read-out: IC50, inhibition of cell proliferation) was 6.85 and the “Cell confluence (% of control)” value ([6]; 0.005 µM) was 100.53 % of control. The “Cell confluence (% of control)” value ([6]; 0.02 µM) was 101.08 % of control, the “Cell confluence (% of control)” value ([6]; 0.05 µM) was 100.72 % of control and the “Cell confluence (% of control)” value ([6]; 0.08 µM) was 98.94 % of control. For the same compound, the “Cell confluence (% of control)” value ([6]; 0.16 µM) was 29.68 % of control, the “Cell confluence (% of control)” value ([6]; 0.32 µM) was 3.32 % of control and the “Cell confluence (% of control)” value ([6]; 0.48 µM) was 3.11 % of control. For the same compound, the “Cell confluence (% of control)” value ([6]; 0.8 µM) was 3.18 % of control, the “Cell confluence (% of control)” value ([6]; 1.6 µM) was 2.81 % of control and the “Cell confluence (% of control)” value ([6]; 4.8 µM) was 2.52 % of control. The “Complex I-induced oxygen consumption” value [7] was “inhibited” and the “OCR in intact cells” value [8] was “suppressed”.
